Test results reported in patent publication EP0197664A2, “2-Aminopyrimidinone derivatives” (SMITH KLINE & FRENCH LABORATORIES LIMITED, priority 1985, dated 1986).

Assays:
right ventricle strips = experiment: Cardiac stimulant activity in vitro (force of contraction of electrically stimulated ventricular strips); format: cell-based, Guinea pigs; conditions: Cavia porcellus, read-out: EC50 (50% increase in the force of contraction of the ventricular strips); guinea pig right ventricular strips, 1.0 Hz stimulation, Krebs Henseleit solution at 37°C, cumulative concentration response
Description: The compounds of formula (I) and their pharmaceutically acceptable salts are tested for cardiac stimulant activity following a procedure based on that of S.C. […] Guinea pigs (500-700 g) of either sex are sacrificed and the hearts are quickly removed and transferred to a dissecting dish containing oxygenated bathing fluid. While in the bathing medium, the right ventricle is cut into two strips. The strips are each suspended in a 50 ml bath containing Krebs Henseleit solution at 37°C, and the bath is bubbled with 95% oxygen and 5% carbon dioxide. The ventricular strips are electrically stimulated at a frequency of 1.0 Hz, at double the threshold voltage. A resting tension of 1.0 g is applied to the strips and the tension is kept constant by readjustment during an equilibration period of 60 minutes. The bathing fluid is frequently changed during this period. When a steady base line is obtained, a compound under test is added to the bathing fluid and a cumulative concentration response curve is plotted.

anaesthetised cats = experiment: Cardiac stimulant activity in vivo (anaesthetised cats, left ventricular dp/dt max); conditions: Felis catus, read-out: ED50 (dose to increase left ventricular dp/dt max by 50%); anaesthetised cats pretreated with pempidine and propranolol, intravenous
Description: The dose to increase left ventricular dp/dt max by 50% is given as the EDso.

Structure (SMILES): Nc1cc(-c2ccncc2)c[nH]c1=O [Amrinone, reference compound]
- EC50 (right ventricle strips): 15 µM
- ED50 (anaesthetised cats): 5.6 µmol/kg

Structure (SMILES): CC1CC(=O)NN=C1c1ccc(Nc2nc(=O)cc[nH]2)cc1 (centres unmarked) [Example 1, 6-[4-(1,4-Dihydro-4-oxo-2-pyrimidinylamino)phenyl]-5-methyl-4,5-dihydro-3(2H)-pyridazinone]
- ED50 (anaesthetised cats): 0.06 µmol/kg

Structure (SMILES): Cc1c[nH]c(Nc2ccc(C3=NNC(=O)CC3C)cc2)nc1=O (centres unmarked) [Example 3, 6-[4-(1,4-Dihydro-5-methyl-4-oxo-2-pyrimidinylamino)phenyl]-5-methyl-4,5-dihydro-3-(2H)-pyridazinone]
- ED50 (anaesthetised cats): 3.03 µmol/kg

Structure (SMILES): CC1CC(=O)NN=C1c1ccc(Nc2nc(=O)c3ccccc3[nH]2)cc1 (centres unmarked) [Example 4, 6-[4-(1,4-Dihydro-4-oxo-2-quinazolinyiamino)-phenyl]-5-methyl-4,5-dihydro-3(2H)-pyridazinone]
- ED50 (anaesthetised cats): 0.41 µmol/kg
